Results published in US11613750B2, “Methods of reducing virus molecule levels” (priority 2019, dated 2023).

Columns and labels:
[1] = test system: RPLP2 protein; assay: Target protein reduction by Western blot in HepG2.2.15 cells; format: cell-based, human; settings: 10 nM siRNA, 72 h
Procedure: (§1) The host factors likely function in viral infection as proteins. Therefore, we determined whether the siRNAs could decrease the amounts of the target protein. Cell transfected with 10 nM of each siRNA for 72 h were lysed and the target proteins identified using Western blots probed with target-specific antibodies. The effective siRNAs described in Table 3 reduced the levels of the proteins by between 28 and 92% of the mock-treated samples. The reduction in the proteins is less than the reduction of the target mRNA, likely due to the proteins have prolonged half-life and that more time is needed for their degradation. […] We reason that this is due to RPLP1 and RPLP2 functioning as heterodimers such that a decrease of one protein increases the vulnerability of the other protein to degradation. Similar concomitant decrease of the proteins was reported by Campos et al. (17). Finally, the levels of two cellular proteins that are not targeted by the siRNAs, P54nrb and GAPDH, were unaffected.

[2] = test system: HBeAg; settings: 10 nM siRNA transfected into cells
Procedure: HBeAg in the cell culture media was assessed using ELISAs.
(§2) The ability of siRNAs targeting host factors that then results in the reduced production of multiple HBV molecules was evaluated by quantifying the amount of HBsAg, HBeAg, and Core protein produced by HepG2.2.15 cells after contacting with 10 nM of siRNAs that target HNRNPA2B1, GRP78, RPLP1, RPLP2, and SRSF1. We also contacted the cells with 5 nM of each set of siRNAs that targets both RPLP1 and RPLP2. The level of HBsAg, HBeAg, and Core were all determined using ELISAs.
(§3) The library of siRNAs of Example A5 were tested for the reduction of HBsAg secreted by HepG2.2.15 cells and in HBV virions.

[3] = test system: HCoV-OC43; assay: OC43 virion RNA, Branched DNA assay, infected HCT8 cells; format: cell-based, human coronavirus OC43; settings: for OC43 vRNA reduction siRNA and siGRP78: 10 nM siRNA along with 10 nM of siRNA targeting GRP78, HCT8 cells; for OC43 vRNA reduction: 10 nM siRNA, HCT8 cells
Procedure: The siRNAs were transfected in the HCT8 cells at a final concentration of 10 nM. A positive control for the inhibition of Coronavirus infection, Remdesivir (Rem), was used at 0.9 μM. The virion RNAs (vRNAs) were quantified using a Branched DNA assay specific for OC43 RNA.
The two siRNAs are those referred to by compound number (see Table 2) in the horizontal bar, along with siRNA targeting GRP78, siGRP78. A positive control for the inhibition of Coronavirus infection, Remdesivir (Rem), was used at 0.9 μM. The vRNAs were quantified using a Branched DNA assay specific for OC43 RNA.
The siRNAs listed in Table 2 were transfected into human colon epithelial HCT8 cells and the amount of OC43 virion produced was quantified. In these assays, the OC43 vRNA was quantified using a Branched DNA assay (QuantiGene gene expression assay: ThermoFisher). As a positive inhibitory control, the infected cells were treated with Remdesivir. […] Examples of the inhibition of OC43 vRNA are illustrated in FIG. 5A.
A combination of siRNAs targeting the host factor should more robustly reduce OC43 virion production. To illustrate this, HCT8 cells were transfected with 10 nM of siRNAs from Table 2 along with 10 nM of siRNA targeting GRP78. The virion RNAs produced were quantified using the Branched DNA assay. […] A combination of siRNAs targeting host factors GRP78, SRSF1, RPLP1 and RPLP2 can lead to significant reduction in the production of human Coronavirus virion RNA from infected cells.

[4] = test system: HepG2.2.15 cells; assay: HepG2.2.15 cell viability, CellTiter-Glo; settings: read-out: CC50, HepG2.2.15 cell viability; highest concentration tested 80 nM
Procedure: (§4) Cell viability was assessed by ATP levels determined using the CellTiter-Glo reagent and the results normalized to the level in mock-treated cells. HBsAg levels were quantified using ELISA and the data normalized to the level in the mock-treated cells.
The effects on cell viability were quantified using the CellTiter-Glo reagent. All data were normalized to the amount of protein produced by mock-treated cells.
as §3

[5] = test system: RPLP2 mRNA; assay: Target mRNA reduction by RT-qPCR in HepG2.2.15 cells; format: cell-based, human; settings: 10 nM siRNA
Description: (§5) The siRNAs identified as described in Example A6 should function by a mechanism that includes being loaded in the RISC complex to cleave the cognate mRNA, leading to the degradation of the mRNA. To examine whether the siRNAs are effective in reducing the target mRNA, we used reverse transcription coupled with quantitative polymerase chain reaction (RT-qPCR) to assess the level of the target mRNA in HepG2.2.15 cells. All 32 siRNAs described in Table 2 reduced the mRNA by more than 75% (Table 3).

[6] = test system: HBsAg; settings: read-out: EC50, Extracell. HBsAg reduction; HepG2.2.15 cells
Procedure: as §4
The cellular proteins GRP78/BIP, SRSF1, HNRNPA2B1, RPLP1, and RPLP2 were identified as having roles in HBV replication and infection. Various siRNAs and combinations thereof targeting the RNAs encoding these proteins were contacted with HepG2.2.15 cells at a final concentration of 7.5 nM.
The EC50 values of several siRNAs and combinations of siRNAs targeting HNRNPA2B1, GRP78, RPLP1, RPLP2, and/or SRSF1 were determined with respect to the ability to reduce HBsAg levels in HepG2.2.15 cells.
as §2, §3

[7] = test system: RPLP1 protein; assay: Target protein reduction by Western blot in HepG2.2.15 cells; format: cell-based, human; settings: 10 nM siRNA, 72 h
Procedure: as §1

[8] = test system: RPLP1 mRNA; assay: Target mRNA reduction by RT-qPCR in HepG2.2.15 cells; format: cell-based, human; settings: 10 nM siRNA
Description: as §5

Row | Substance | Target protein reduction in HepG2.2.15 cells [1] [%] | HBeAg reduction HepG2.2.15 cells [2] [%] | OC43 vRNA reduction siRNA and siGRP78 [3] [%] | CC50 [4] [nM] | Target RNA reduction in HepG2.2.15 cells [5] [%] | EC50 [6] [nM] | OC43 vRNA reduction [3] [%] | Target protein reduction in HepG2.2.15 cells [7] [%] | Target RNA reduction in HepG2.2.15 cells [8] [%]
1 | 47 (UGGCCUUUUUGAUUAAAUUTTAAUUUAAUCAAAAAGGCCAAA; siRNA; Self-complementary hairpin strand, chemistry not given here, further chemistry not given here; listed as Homo sapiens) [compound 47] | 67 ± 5 | 38 ± 5 | 89 ± 2 | > 80 | 97 ± 3 | 0.07 | – | – | –
2 | 42 (CCCAGCGCCAAGGACAUCAAGUUCUUGAUGUCCUUGGCGCUGGGUU; siRNA; Self-complementary hairpin strand, chemistry not given here, further chemistry not given here; listed as Homo sapiens) [compound 42] | 50 ± 4 | 42 ± 2 | 85 ± 7 | > 80 | 95 ± 1 | 0.385 | 57 ± 5 | – | –
3 | 39 (AGAGGAGAAGAAAGAUGAGAAUUUUCUCAUCUUUCUUCUCCUCUUU; siRNA; Self-complementary hairpin strand, chemistry not given here, further chemistry not given here; listed as Homo sapiens) [compound 39] | 48 ± 9 | 59 ± 4 | 86 ± 6 | > 80 | 96 ± 1 | 0.103 | 91 ± 2 | – | –
4 | 35 (GGGAUUUGGCCUUUUUGAUUATTAUCAAAAAGGCCAAAUCCCAUTT; siRNA; Self-complementary hairpin strand, chemistry not given here, further chemistry not given here; listed as Homo sapiens) [compound 35] | 78 ± 16 | 69 ± 3 | 96 ± 1 | > 80 | 98 ± 0 | 0.01 | 94 ± 6 | – | –
5 | 45 (GGAAAAAACAUUGAAGACGUCUUGACGUCUUCAAUGUUUUUUCCUU; siRNA; Self-complementary hairpin strand, chemistry not given here, further chemistry not given here; listed as Homo sapiens) [compound 45] | 61 ± 7 | 42 ± 5 | 89 ± 2 | > 80 | 98 ± 1 | 0.013 | – | – | –
6 | 40 (AGUCUGAAGAGUCAGAUGAUGUUCAUCAUCUGACUCUUCAGACUUU; siRNA; Self-complementary hairpin strand, chemistry not given here, further chemistry not given here; listed as Homo sapiens) [compound 40] | 54 ± 2 | 56 ± 3 | 79 ± 15 | > 80 | 98 ± 1 | 0.114 | 89 ± 5 | – | –
7 | 49 (AAACAUUGAAGACGUCAUUTTAAUGACGUCUUCAAUGUUUTT; siRNA; Self-complementary hairpin strand, chemistry not given here, further chemistry not given here; listed as Homo sapiens) [compound 49] | 59 ± 4 | 32 ± 6 | 91 ± 3 | > 80 | 98 ± 1 | 0.026 | – | – | –
8 | 33 (UUGGUCUUUUUGACUAAACCUUUAGGUUUAGUCAAAAAGACCAAUU; siRNA; Self-complementary hairpin strand, chemistry not given here, further chemistry not given here; listed as Homo sapiens) [compound 33] | – | – | – | > 80 | – | 1.54 | – | 28 ± 4 | 83 ± 6
9 | 50 (CGACCGGCUCAACAAGGUUTTAACCUUGUUGAGCCGGUCGTC; siRNA; Self-complementary hairpin strand, chemistry not given here, further chemistry not given here; listed as Homo sapiens) [compound 50] | 48 ± 2 | 42 ± 5 | 91 ± 2 | > 80 | 98 ± 1 | 0.095 | – | – | –
10 | 43 (GUAUCGAGGCGGACGACGACCUUGGUCGUCGUCCGCCUCGAUACUU; siRNA; Self-complementary hairpin strand, chemistry not given here, further chemistry not given here; listed as Homo sapiens) [compound 43] | 45 ± 4 | 70 ± 5 | 92 ± 2 | > 80 | 94 ± 2 | 0.182 | 94 ± 1 | – | –
